Measurements from patent US8673942B2, “Fused ring compounds and use thereof” (Takeda Pharmaceutical Company Limited, priority 2008, dated 2014).

| SMILES | melting point |
| --- | --- |
| CS(=O)(=O)c1ccc(Oc2cc(OCc3ccccc3)c3[nH]c(C4=NCC(CCO)S4)cc3c2)cc1 (stereo not drawn) [Example 2, 2-(2-{7-(Benzyloxy)-5-[4-(methylsulfonyl)phenoxy]-1H-indol-2-yl}-4,5-dihydro-1,3-thiazol-5-yl)ethanol] | 97 to 98 °C |
| CS(=O)(=O)c1ccc(Oc2cc(OCc3ccccc3)c3[nH]c(C4=NCC(CC(N)=O)S4)cc3c2)cc1 (stereo not drawn) [Example 4, 2-(2-{7-(Benzyloxy)-5-[4-(methylsulfonyl)phenoxy]-1H-indol-2-yl}-4,5-dihydro-1,3-thiazol-5-yl)acetamide] | 134 to 135 °C |
| CS(=O)(=O)c1ccc(Oc2cc(OCc3cccc(Cl)n3)c3[nH]c(C4=NCC(CCO)S4)cc3c2)cc1 (stereo not drawn) [Example 6, 2-(2-{7-[(6-Chloropyridin-2-yl)methoxy]-5-[4-(methylsulfonyl)phenoxy]-1H-indol-2-yl}-4,5-dihydro-1,3-thiazol-5-yl)ethanol] | 93 to 94 °C |
| CS(=O)(=O)c1ccc(Oc2cc(OCc3cccc(Cl)n3)c3[nH]c(C4=NCC(CC(N)=O)S4)cc3c2)cc1 (stereo not drawn) [Example 8, 2-(2-{7-[(6-Chloropyridin-2-yl)methoxy]-5-[4-(methylsulfonyl)phenoxy]-1H-indol-2-yl}-4,5-dihydro-1,3-thiazol-5-yl)acetamide] | 147 to 148 °C |
| CCOC(=O)c1nnc(-c2cc3cc(Oc4ccc(S(C)(=O)=O)cc4)cc(OCc4ccccc4)c3[nH]2)s1 [Example 20, Ethyl 5-{7-(benzyloxy)-5-[4-(methylsulfonyl)phenoxy]-1H-indol-2-yl}-1,3,4-thiadiazole-2-carboxylate] | 194 to 195 °C |
| CS(=O)(=O)c1ccc(Oc2cc(OCc3ccccc3)c3[nH]c(-c4nnc(CO)s4)cc3c2)cc1 [Example 21, (5-{7-(Benzyloxy)-5-[4-(methylsulfonyl)phenoxy]-1H-indol-2-yl}-1,3,4-thiadiazol-2-yl)methanol] | 159 to 160 °C |

Now from value to molecule:

| melting point | SMILES |
| --- | --- |
| 195 to 197 °C | CNC(=O)CC1CN=C(c2cc3cc(Oc4ccc(S(C)(=O)=O)nc4)cc(OC)c3[nH]2)S1 (single isomer, unassigned) [Example 32, 2-[2-(7-Methoxy-5-{[6-(methylsulfonyl)pyridin-3-yl]oxy}-1H-indol-2-yl)-4,5-dihydro-1,3-thiazol-5-yl]-N-methylacetamide] |
| 145 to 146 °C | CC(C)Oc1cc(Oc2ccc(S(C)(=O)=O)cn2)cc2cc(C3=NCC(CC(C)(C)O)S3)[nH]c12 (single isomer, unassigned) [Example 64, 2-Methyl-1-{2-[7-(1-methylethoxy)-5-{[5-(methylsulfonyl)pyridin-2-yl]oxy}-1H-indol-2-yl]-4,5-dihydro-1,3-thiazol-5-yl}propan-2-ol] |
| 125 to 126 °C | CS(=O)(=O)c1ccc(Oc2cc(OCc3ccccc3)c3[nH]c(-c4ncc(CO)s4)cc3c2)cc1 [Example 23, (2-{7-(Benzyloxy)-5-[4-(methylsulfonyl)phenoxy]-1H-indol-2-yl}-1,3-thiazol-5-yl)methanol] |
| 225 to 227 °C | COc1cc(Oc2ccc(S(C)(=O)=O)nc2)cc2cc(C3=NCC(CC(N)=O)S3)[nH]c12 (stereo not drawn) [Example 29, 2-[2-(7-Methoxy-5-{[6-(methylsulfonyl)pyridin-3-yl]oxy}-1H-indol-2-yl)-4,5-dihydro-1,3-thiazol-5-yl]acetamide] |
| 201 to 202 °C | CNC(=O)CC1CN=C(c2cc3cc(Oc4ccc(S(C)(=O)=O)nc4)cc(OC)c3[nH]2)S1 (stereo not drawn) [Example 30, 2-[2-(7-Methoxy-5-{[6-(methylsulfonyl)pyridin-3-yl]oxy}-1H-indol-2-yl)-4,5-dihydro-1,3-thiazol-5-yl]-N-Methylacetamide] |
| 172 to 173 °C | COCC(COC)Oc1cc(Oc2ccc(S(C)(=O)=O)nc2)cc2cc(C3=NCC(CC(N)=O)S3)[nH]c12 (stereo not drawn) [Example 35, 2-[2-(7-[2-Methoxy-1-(methoxymethyl)ethoxy]-5-{[6-(methylsulfonyl)pyridin-3-yl]oxy}-1H-indol-2-yl)-4,5-dihydro-1,3-thiazol-5-yl]acetamide] |
